According to ChEMBL document CHEMBL1201862, “PubChem BioAssay data set” (2004):
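Step 1: Grow cells in 96-well plates. Step 2: Expose to compound for 48 hours at 5 concentrations. Step 3: Interpolate endpoints linearly; if unreached, use highest concentration. GI50: concentration for 50% inhibition of growth.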 The source made the active and inactive calls. Rule as the data show it: active = GI50 up to about 1.1 µM and inactive = higher.

Experiments:
Assay in all cases: NCI anticancer screen, dose series, 48 h
[1] = test system: HOP-62
[2] = test system: TK-10
[3] = test system: UACC-62
[4] = test system: SNB-75
[5] = test system: NCI-H460
[6] = test system: UO-31
[7] = test system: KM12
[8] = test system: OVCAR-5
[9] = test system: OVCAR-3
[10] = test system: MOLT-4
[11] = test system: NCI-H226
[12] = test system: CCRF-CEM
[13] = test system: Malme-3M
[14] = test system: HCT-116
[15] = test system: SK-MEL-5
[16] = test system: CAKI-1
[17] = test system: HOP-92

Row | Structure (SMILES) | GI50 [1] | GI50 [2] | GI50 [3] | GI50 [4] | GI50 [5] | GI50 [6] | GI50 [7] | GI50 [8] | GI50 [9] | GI50 [10] | GI50 [11] | GI50 [12] | GI50 [13] | GI50 [14] | GI50 [15] | GI50 [16] | GI50 [17]
1 | O=C1Nc2ccccc2/C1=N/NC(=O)c1ccccc1O | 57.3 µM (inactive) | 65.9 µM (inactive) | 36.1 µM (inactive) | 19.8 µM (inactive) | 34.8 µM (inactive) | 28.2 µM (inactive) | 33.7 µM (inactive) | > 100 µM (inactive) | 85.3 µM (inactive) | 29 µM (inactive) | 33.2 µM (inactive) | 33.4 µM (inactive) | 35.1 µM (inactive) | 36.8 µM (inactive) | – | – | –
2 | CC1CCP(=O)(c2ccccc2)CC1 (stereo unspecified) | > 100 µM (inactive) | > 100 µM (inactive) | > 100 µM (inactive) | > 100 µM (inactive) | > 100 µM (inactive) | > 100 µM (inactive) | > 100 µM (inactive) | > 100 µM (inactive) | > 100 µM (inactive) | > 100 µM (inactive) | – | > 100 µM (inactive) | > 100 µM (inactive) | – | > 100 µM (inactive) | > 100 µM (inactive) | –
3 | [O-][n+]1c2cc(CN3CCOCC3)c(CN3CCOCC3)cc2[n+]([O-])c2c(O)cccc21 | 3.75 µM (inactive) | > 20.4 µM (inactive) | 4.21 µM (inactive) | 3.46 µM (inactive) | 0.993 µM (active) | 3.72 µM (inactive) | 4.4 µM (inactive) | 4.38 µM (inactive) | 5.15 µM (inactive) | 0.627 µM (active) | 8.65 µM (inactive) | 0.427 µM (active) | 8.73 µM (inactive) | 1.81 µM (inactive) | – | – | 2 µM (inactive)
4 | CSc1nc2[nH]c(=O)c(C)nc2c(=O)[nH]1 | > 100 µM (inactive) | > 100 µM (inactive) | > 100 µM (inactive) | > 100 µM (inactive) | > 100 µM (inactive) | > 100 µM (inactive) | > 100 µM (inactive) | > 100 µM (inactive) | > 100 µM (inactive) | > 100 µM (inactive) | – | > 100 µM (inactive) | > 100 µM (inactive) | > 100 µM (inactive) | > 100 µM (inactive) | > 100 µM (inactive) | > 100 µM (inactive)
5 | CC(=O)NNc1nc(C)c(C(=O)/C=C/c2ccc(Cl)cc2)s1 | > 100 µM (inactive) | > 100 µM (inactive) | > 100 µM (inactive) | > 100 µM (inactive) | > 100 µM (inactive) | > 100 µM (inactive) | > 100 µM (inactive) | > 100 µM (inactive) | > 100 µM (inactive) | > 100 µM (inactive) | – | > 100 µM (inactive) | > 100 µM (inactive) | – | > 100 µM (inactive) | > 100 µM (inactive) | > 100 µM (inactive)
6 | CC(C(=O)c1ccccc1)C1(O)C(=O)Nc2ccc(Cl)cc21 (stereo unspecified) | > 100 µM (inactive) | > 100 µM (inactive) | 42.2 µM (inactive) | > 100 µM (inactive) | > 100 µM (inactive) | 0.469 µM (active) | > 100 µM (inactive) | > 100 µM (inactive) | 37.4 µM (inactive) | – | > 100 µM (inactive) | – | > 100 µM (inactive) | > 100 µM (inactive) | – | > 100 µM (inactive) | > 100 µM (inactive)
7 | O=C1C=CC=CC2CC=C[C@@H](O)C12 (stereo partly specified) | 45.7 µM (inactive) | 32.4 µM (inactive) | 17.8 µM (inactive) | – | 18.4 µM (inactive) | 16.4 µM (inactive) | 10.4 µM (inactive) | 30.5 µM (inactive) | > 10 µM (inactive) | 20.9 µM (inactive) | – | 15.3 µM (inactive) | 21.3 µM (inactive) | 13.2 µM (inactive) | 18 µM (inactive) | 65.6 µM (inactive) | –
8 | CN(C(=O)C12C3C4C1C1C2C3C41C(O)C(C)(C)C)C(C)(C)C (stereo unspecified) | > 100 µM (inactive) | > 100 µM (inactive) | > 100 µM (inactive) | > 100 µM (inactive) | > 100 µM (inactive) | > 100 µM (inactive) | > 100 µM (inactive) | > 100 µM (inactive) | > 100 µM (inactive) | > 100 µM (inactive) | > 100 µM (inactive) | > 100 µM (inactive) | > 100 µM (inactive) | > 100 µM (inactive) | > 100 µM (inactive) | > 100 µM (inactive) | –
9 | CCN(CC)CCNC(=O)c1ccccc1Nc1c(Cl)cccc1Cl | 11.3 µM (inactive) | 12.1 µM (inactive) | 17.1 µM (inactive) | 11.2 µM (inactive) | 4.39 µM (inactive) | 9.95 µM (inactive) | – | 7.55 µM (inactive) | – | 13.1 µM (inactive) | 17.8 µM (inactive) | 14.1 µM (inactive) | – | 12.8 µM (inactive) | 11.8 µM (inactive) | – | –
10 | COc1cccc2c1[C@H]1OC(=O)NC1CCCCC2 (stereo partly specified) | > 100 µM (inactive) | > 100 µM (inactive) | > 100 µM (inactive) | > 100 µM (inactive) | > 100 µM (inactive) | > 100 µM (inactive) | > 100 µM (inactive) | > 100 µM (inactive) | > 100 µM (inactive) | > 100 µM (inactive) | > 100 µM (inactive) | > 100 µM (inactive) | > 100 µM (inactive) | > 100 µM (inactive) | > 100 µM (inactive) | > 100 µM (inactive) | –
11 | CC1=C(C)C(=O)c2c(cc3ccc4ccccc4n23)C1=O | – | > 100 µM (inactive) | > 100 µM (inactive) | > 100 µM (inactive) | > 100 µM (inactive) | > 100 µM (inactive) | > 100 µM (inactive) | > 100 µM (inactive) | > 100 µM (inactive) | > 100 µM (inactive) | > 100 µM (inactive) | > 100 µM (inactive) | > 100 µM (inactive) | – | > 100 µM (inactive) | – | –
12 | COc1ccc2c(CCNC(C)=O)c(C(C)=O)[nH]c2c1 | > 100 µM (inactive) | > 100 µM (inactive) | > 100 µM (inactive) | > 100 µM (inactive) | > 100 µM (inactive) | > 100 µM (inactive) | > 100 µM (inactive) | > 100 µM (inactive) | > 100 µM (inactive) | > 100 µM (inactive) | 71.4 µM (inactive) | > 100 µM (inactive) | – | > 100 µM (inactive) | – | 70.5 µM (inactive) | –
13 | CN(C)CCNC(=O)c1cccc2c(Nc3ccc(S(=O)(=O)N=C(N)N)cc3)c3ccccc3nc12 | 11.3 µM (inactive) | 75.9 µM (inactive) | 10.3 µM (inactive) | 15.1 µM (inactive) | 3.17 µM (inactive) | 10 µM (inactive) | 31.3 µM (inactive) | 28.4 µM (inactive) | – | 2.03 µM (inactive) | 2.19 µM (inactive) | 2.57 µM (inactive) | – | 25.8 µM (inactive) | 13.9 µM (inactive) | – | –
14 | C/C(CCN(C)C)=N/O | 1.77 µM (inactive) | 7.73 µM (inactive) | 1.15 µM (inactive) | 16.8 µM (inactive) | 1.64 µM (inactive) | 16 µM (inactive) | 12.5 µM (inactive) | 18.7 µM (inactive) | 1.29 µM (inactive) | 0.328 µM (active) | 30 µM (inactive) | 0.194 µM (active) | – | 0.531 µM (active) | – | 1.02 µM (active) | 9.44 µM (inactive)
